Assay results taken from patent US9795625B2, “Uridine and uridine analogues for treatment of specific lung diseases, namely COPD and pulmonary fibrosis” (Universitaetsklinikum Freiburg, priority 2011, dated 2017).

Tests used:
[1] = system: sephadex-induced acute lung inflammation; settings: sephadex-induced acute lung inflammation model; cited from earlier work
[2] = system: murine model of chronic smoke exposure; test: Chronic exposure to cigarette smoke (pulmonary emphysema), lung morphometry; assay type: in vivo, male C57BL/6 mice; settings: uridine 0.6 mg/kg oral gavage 45 min prior to smoke exposure vs non-uridine treated mice (FIG. 2)
Source text: The methodology for chronic smoke exposure has been previously described (Cavarra E et al., Human SLPI inactivation after cigarette smoke exposure in a new in vivo model of pulmonary oxidative stress, Am J Physiol Lung Cell Mol Physiol. 2001 August; 281(2):L412-7 Cicko S et al., Purinergic receptor inhibition prevents the development of smoke-induced lung injury and emphysema, J Immunol. 2010 Jul. 1; 185(1):688-97)). Briefly, male C57BL/6 mice were exposed to either the smoke of 3 cigarettes per day (commercial Virginia filter cigarettes: 12 mg of tar and 0.9 mg of nicotine), 5 days per week or to room air (controls) for 4 or 7 months, respectively.
When indicated, animals received an oral treatment by gavage with Uridine (0.6 mg/kg) 45 min prior to smoke exposure.
At the end of the respective time period, animals were sacrificed; BAL was performed followed by lung resection. […] Lung volume was measured by water displacement. […]
This Lm value was used to calculate the ISA (which represent the gas exchange surface), necessary for evaluating the degree of emphysema, from the equation 4V/Lm, where V is the postfixation lung volume. For the determination of the Lm for each pair of lungs, 40 histological fields were evaluated both vertically and horizontally.
Statistical significance of differences between samples was calculated using ANOVA, followed by Bonferroni comparison test. […]

[3] = system: mitochondrial toxicity caused by highly active antiretroviral therapy (HAART); settings: cited from earlier work
[4] = system: BLM-induced pulmonary fibrosis; test: Mouse model of bleomycin (BLM) induced pulmonary fibrosis; assay type: in vivo, male C57/B16 mice
Description: The induction of BLM induced pulmonary fibrosis was performed as previously described (Gasse P, Mary C, Guenon I, Noulin N, Charron S, Schnyder-Candrian S, Schnyder B, Akira S, Quesniaux V F, Lagente V, et al. II-1r1/myd88 signaling and the inflammasome are essential in pulmonary inflammation and fibrosis in mice. J Clin Invest 2007; 117(12):3786-3799). Then, male C57/B16 animals were treated with the uridine p.o. (200 μl 10 mM) or vehicle 14 days after BLM-instillation for 3 days a week. At day 30 animals were examined for the typical features of BLM-induced lung injury. Therefore BALF was collected and differential cell count was analyzed as described above.
(§1) Cytokine concentrations in BALF were measured using commercially available ELISA kits (R&D Systems, Minneapolis, Minn.) according to the manufacturer's recommendations.
The amount of lung collagen was measured in the lung tissue using the Sircol-assay according to the manufacturer's recommendations (Biocolor, Life-Science, UK).
(§2) Statistical significance of differences between samples was calculated using ANOVA, followed by Bonferroni comparison test. Difference were considered significant if p<0.05.

[5] = system: asthmatic airway inflammation; settings: OVA-alum model and HDM model in mice, local administration; cited from earlier work
smoke exposed mice = test: Acute cigarette smoke exposure, i.t. uridine, BAL fluid analysis; assay type: in vivo, Male C57BL/6 mice
Description: Male C57BL/6 mice were exposed to whole smoke of five cigarettes (commercial Virginia filter cigarettes: 12 mg of tar and 0.9 mg of nicotine) or room air for 20 min on three consecutive days in especially designed macrolon cages (Tecniplast, Buguggiate, Italy), as previously described (Cavarra E et al., Human SLPI inactivation after cigarette smoke exposure in a new in vivo model of pulmonary oxidative stress, Am J Physiol Lung Cell Mol Physiol. 2001 August; 281(2):L412-7, Cicko S et al., Purinergic receptor inhibition prevents the development of smoke-induced lung injury and emphysema, J Immunol. 2010 Jul. 1; 185(1):688-97). The smoke was produced by the burning of a cigarette and was introduced into the chamber with the airflow generated by a mechanical ventilator (7025 Rodent Ventilator, Ugo Basile, Biological Research Instruments, Comerio, Italy), at a rate of 250 ml/min. A second mechanical ventilator was used to provide room air for dilution (1:8) of the smoke-stream.
In some experiments, intratracheal treatment (i.t.) was performed prior to each smoke exposure: animals were anaesthetized by intraperitoneal injection of Ketamin/Xylazin and received an i.t. injection of uridine in a total volume of 80 μl (1 mM or 10 mM) or PBS which was used as vehicle. One hour after the last smoke challenge, mice were sacrificed and bronchoalveolar lavage (BAL) was performed.
BAL fluid was collected by cannulating the trachea under deep pentobarbital anesthesia and washing the lung three times with 1 ml PBS containing 0.1 mM EDTA, as previously described (Idzko M et al., Extracellular ATP triggers and maintains asthmatic airway inflammation by activating dendritic cells, Nat Med. 2007 Aug.; 13(8):913-9, Cicko S et al., Purinergic receptor inhibition prevents the development of smoke-induced lung injury and emphysema, J Immunol. 2010 Jul. 1; 185(1):688-97). Total cell numbers were counted and differential cell counts were performed on cytospin preparations after staining with Diff-Quick (Medion Diagnostics, Dudingen, Switzerland). Differential cell counts were made on >200 cells using standard morphological criteria and FACS-analysis.
After counting and washing, BAL cells were stained for 30 min with anti-MHC class II (macrophages/DC), anti-7/4 (Caltag) FITC (neutrophiles; Abd-Serotec, Düsseldorf, Germany), anti-CD3 and anti-CD19 cy-chrome (lymphocytes), and anti-CD 11c APC macrophages/DCs (eBioscience, San Diego, Calif.) in PBS containing 0.5% BSA and 0.01% sodium azide. Differential cell counts were analyzed by flow cytometry, as described previously (Idzko M et al., Extracellular ATP triggers and maintains asthmatic airway inflammation by activating dendritic cells, Nat Med. 2007 Aug.; 13(8):913-9 and Cicko S et al., Purinergic receptor inhibition prevents the development of smoke-induced lung injury and emphysema, J Immunol. 2010 Jul. 1; 185(1):688-97).
To measure ATP concentrations in BALF in mice, fresh BALF supernatants were used, according to manufacturer's instructions (ATPlite Assay, PerkinElmer, Wellesley Mass.), but without the cell lysis step to avoid any contaminating intracellular ATP, as described previously (Idzko M et al., Extracellular ATP triggers and maintains asthmatic airway inflammation by activating dendritic cells, Nat Med. 2007 Aug.; 13(8):913-9 Cicko S et al., Purinergic receptor inhibition prevents the development of smoke-induced lung injury and emphysema, J Immunol. 2010 Jul. 1; 185(1):688-97)).
as §1, §2

[6] = BALF, uridine p.o. 200 μl 10 mM, day 30
[7] = uridine p.o. 200 μl 10 mM, day 30
[8] = BALF, uridine i.t. 1 mM or 10 mM

SMILES: O=c1[nH]c(=S)ccn1[C@@H]1O[C@H](CO)[C@@H](O)[C@H]1O [4-thiouridine]
- anti-inflammatory effects [1]: anti-inflammatory effects similar to those of uridine

SMILES: O=c1ccn([C@@H]2O[C@H](CO)[C@@H](O)[C@H]2O)c(=O)[nH]1 [uridine]
- internal surface area of the lung [2]: higher
- mean linear intercept [2]: significantly lower
- efficacy in reduction of mitochondrial toxicity ([3]; human, HAART): efficacious
- safety ([3]; in vivo): safe
- IL-1 beta [4, 6]: down-regulation
- IL-6 [4, 6]: down-regulation
- KC [4, 6]: down-regulation
- TNFalpha [4, 6]: down-regulation
- BLM-induced pulmonary fibrosis ([4]; uridine p.o 3×/week from day 14, day 30 (FIG. 3)): decreases
- amount of collagen in the lung ([4]; uridine p.o. 200 μl 10 mM 3 days a week from day 14, day 30): significantly reduce
- TIMP-1 ([4]; uridine p.o. 200 μl 10 mM, after bleomycin instillation (FIG. 3)): reduced to normal levels
- lymphocytes in BALF [4, 7]: down-regulation
- macrophages in BALF [4, 7]: down-regulation
- neutrophils in BALF [4, 7]: down-regulation
- asthmatic airway inflammation [5]: suppress
- level of IFN-γ (smoke exposed mice; [8]): dose dependently reduced
- level of IL-1β (smoke exposed mice; [8]): dose dependently reduced
- level of IL-6 (smoke exposed mice; [8]): dose dependently reduced
- level of KC (smoke exposed mice; [8]): dose dependently reduced
- level of MIP-2 (smoke exposed mice; [8]): dose dependently reduced
- number of macrophages (smoke exposed mice; [8]): dose dependently reduced
- number of neutrophils (smoke exposed mice; [8]): dose dependently reduced
- amount of extracellular ATP in BALF (smoke exposed mice; uridine i.t. 80 μl 1 mM or 10 mM vs non uridine treated mice (FIG. 1b)): significantly be reduced in a dose dependent manner
